# Reference: article PMC6522510 (Nature Communications, 2019)
# Structures can show the parent of a compound that is named as a salt.
# Experiments:
# Experiment in all cases: cells
# Set-up in all cases: species or system AML cell lines (8); Secondary HTS, 10-point dose-response in triplicate, Cell Titer Glo viability, four-parameter fit EC50
# [1] = tested on: MV4-11; conditions: Homo sapiens, MV4-11, 72 h, read-out: MV4-11
# [2] = tested on: ML-2; conditions: Homo sapiens, ML-2, 72 h, read-out: ML-2
# [3] = tested on: U937; conditions: Homo sapiens, U-937, 72 h, read-out: U937
# [4] = tested on: CMK; conditions: Homo sapiens, CMK, 72 h, read-out: CMK
# [5] = tested on: CHRF288-11; conditions: 72 h, read-out: CHRF288-11
# [6] = tested on: MOLM-13; conditions: Homo sapiens, MOLM-13, 72 h, read-out: MOLM-13
# [7] = tested on: CMS; conditions: 72 h, read-out: CMS
# [8] = tested on: M07e; conditions: M-07e, 72 h, read-out: M07e
EC50 [1] [µM],EC50 [3] [µM],EC50 [6] [µM],SMILES,EC50 [2] [µM],EC50 [4] [µM],EC50 [5] [µM],EC50 [7] [µM],EC50 [8] [µM]
> 10,> 10,> 10,CC(C)n1c(/C=C/C(O)CC(O)CC(=O)O)c(-c2ccc(F)cc2)c2ccccc21 (stereo not shown) [FLUVASTATIN],> 10,> 10,> 10,> 10,> 10
> 10,> 10,> 10,Cc1c(Cn2c(C)nc3c(C(=O)O)cc(N4CCOCC4)cc32)cccc1C(F)(F)F [GSK-2636771],> 10,> 10,> 10,> 10,> 10
> 10,> 10,> 10,CCN(CCO)CCCC(C)Nc1ccnc2cc(Cl)ccc12 (stereo not shown) [HYDROXYCHLOROQUINE],> 10,> 10,> 10,> 10,> 10
> 10,> 10,> 10,CC[C@H](Nc1ncnc2[nH]cnc12)c1nc2cccc(F)c2c(=O)n1-c1ccccc1 [IDELALISIB],> 10,> 10,> 10,> 10,> 10
> 10,> 10,> 10,O[C@@H]1CO[C@H]2[C@@H]1OC[C@@H]2O [ISOSORBIDE],> 10,> 10,> 10,> 10,> 10
> 10,> 10,> 10,CS(=O)(=O)CCNCc1ccc(-c2ccc3ncnc(Nc4ccc(OCc5cccc(F)c5)c(Cl)c4)c3c2)o1 [LAPATINIB],> 10,> 10,> 10,> 10,> 10
> 10,> 10,> 10,Nc1nc(OCc2cc(Br)cs2)c2[nH]cnc2n1 [LOMEGUATRIB],> 10,> 10,> 10,> 10,> 10
> 10,> 10,> 10,Cc1cccc(-c2nn3c(c2-c2ccnc4ccc(C(N)=O)cc24)CCC3)n1 [LY2157299],> 10,> 10,> 10,> 10,> 10
> 10,> 10,> 10,S=c1[nH]cnc2nc[nH]c12 [MERCAPTOPURINE],> 10,> 10,> 10,> 10,> 10
> 10,> 10,> 10,Clc1ccc(C(c2ccccc2Cl)C(Cl)Cl)cc1 (stereo not shown) [MITOTANE],> 10,> 10,> 10,> 10,> 10
> 10,> 10,> 10,O=C(O)CC[C@H]1CC[C@@](c2cc(F)ccc2F)(S(=O)(=O)c2ccc(Cl)cc2)CC1 [MK-0752],> 10,> 10,> 10,> 10,> 10
> 10,> 10,> 10,COc1ccc2c(c1OC)C(=O)O[C@@H]2[C@H]1c2c(cc3c(c2OC)OCO3)CCN1C [NOSCAPINE HYDROCHLORIDE],> 10,> 10,> 10,> 10,> 10
> 10,> 10,> 10,CO[C@@H]1[C@@H](OC(N)=O)[C@@H](O)[C@H](Oc2ccc3c(O)c(NC(=O)c4ccc(O)c(CC=C(C)C)c4)c(=O)oc3c2C)OC1(C)C [NOVOBIOCIN SODIUM],> 10,> 10,> 10,> 10,> 10
> 10,> 10,> 10,CCN1CCN(c2ccc(Nc3cc(N(C)C(=O)Nc4c(Cl)c(OC)cc(OC)c4Cl)ncn3)cc2)CC1 [NVP-BGJ398],> 10,> 10,> 10,> 10,> 10
> 10,> 10,> 10,Cc1[nH]c(/C=C2\C(=O)Nc3ccccc32)c(C)c1CCC(=O)O [ORANTINIB],> 10,> 10,> 10,> 10,> 10
> 10,> 10,> 10,Cc1ccc(Nc2nccc(N(C)c3ccc4c(C)n(C)nc4c3)n2)cc1S(N)(=O)=O [PAZOPANIB],> 10,> 10,> 10,> 10,> 10
> 10,> 10,> 10,OC[C@H]1O[C@@H](n2cnc3c2NC=NC[C@H]3O)C[C@@H]1O [PENTOSTATIN],> 10,> 10,> 10,> 10,> 10
> 10,> 10,> 10,CCCCCCCCCCCCCCCCCCOP(=O)([O-])OC1CC[N+](C)(C)CC1 [PERIFOSINE],> 10,> 10,> 10,> 10,> 10
> 10,> 10,> 10,CCCC(=O)OCOC(=O)C(C)(C)C [PIVANEX],> 10,> 10,> 10,> 10,> 10
> 10,> 10,> 10,CC(C)(C(=O)NCC(F)(F)C(F)(F)F)C(=O)N[C@@H]1C(=O)Nc2ccccc2-c2ccccc21 [RO-4929097],> 10,> 10,> 10,> 10,> 10
> 10,> 10,> 10,CC(C)c1nc(N(C)S(C)(=O)=O)nc(-c2ccc(F)cc2)c1/C=C/[C@@H](O)C[C@@H](O)CC(=O)O [ROSUVASTATIN],> 10,> 10,> 10,> 10,> 10
> 10,> 10,> 10,CNCc1ccc(-c2[nH]c3cc(F)cc4c3c2CCNC4=O)cc1 [RUCAPARIB],> 10,> 10,> 10,> 10,> 10
> 10,> 10,> 10,CC(C)=CCC/C(C)=C/CC/C(C)=C/CSc1ccccc1C(=O)O [SALIRASIB],> 10,> 10,> 10,> 10,> 10
> 10,> 10,> 10,CCn1c(=O)c(-c2cc[nH]n2)cc2c(C)nc(N)nc21 [SAR245409],> 10,> 10,> 10,> 10,> 10
> 10,> 10,> 10,NC(=O)c1ccc(-c2nc(-c3ccc4c(c3)OCO4)c(-c3ccccn3)[nH]2)cc1 [SB-431542],> 10,> 10,> 10,> 10,> 10
> 10,> 10,> 10,Nc1ncnc2c1ncn2[C@@H]1O[C@H](C[C@@H](N)CC[C@H](N)C(=O)O)[C@@H](O)[C@H]1O [SINEFUNGIN],> 10,> 10,> 10,> 10,> 10
> 10,> 10,> 10,"O=C1NC(=O)/C(=C/c2cccc(C(F)(F)F)c2)S1 [SJ000006739, SMI-4A]",> 10,> 10,> 10,> 10,> 10
> 10,> 10,> 10,"CCOC(=O)c1cc2ccccc2nc1C [SJ000025189, MC-1626]",> 10,> 10,> 10,> 10,> 10
> 10,> 10,> 10,"Cc1ccc(S(=O)(=O)n2c(N)nc3ccccc32)cc1 [SJ000042554, NODINITIB-1]",> 10,> 10,> 10,> 10,> 10
